# Results from publication PMC6663879, “Biochemical and structural investigations clarify the substrate selectivity of the 2-oxoglutarate oxygenase JMJD6” (The Journal of Biological Chemistry, 2019).
# Several values for one entry are separate records, joined by “and”; a condition that tells them apart may be missing. Equal values may be shown once.
# Biological target: JMJD6^Δ363–403 (Homo sapiens, UniProt Q6NYC1)
# Assay: Standard MS-based hydroxylation assay (MALDI-TOF MS) of substrate peptides
# Type: biochemical
# Set-up: two more variants (aa 1–362, JMJD6^Δ363–403, and aa 1–343, JMJD6^Δ344–403); His6 (N); made in house; host or cells: Escherichia coli Rosetta2(DE3)
# Conditions: for Hydroxylation: 10 μM JMJD6^Δ363–403, 100 μM peptide, 100 μM Fe(II), 400 μM ascorbate, 500 μM 2OG, 50 mM HEPES-KOH pH 8.0, 37 °C, 30 min, MALDI-TOF MS; for Hydroxylation / kcat / Km: mean ± S.D. (n = 3); for kcat/Km^app / kcat / Km: standard hydroxylation assay conditions, substrate peptide varied 0–400 μM; for Km: read-out: Km^app; for JMJD6-catalyzed hydroxylation (+16-Da mass shift), result in words: JMJD6^Δ363–403, standard assay conditions, MALDI-TOF MS / LC-MS/MS
Substance,Hydroxylation,kcat/Km^app,kcat,Km,"JMJD6-catalyzed hydroxylation (+16-Da mass shift), result in words"
"DRKSYKHRSKSRDR [CROP357–370, fragment of SR protein CROP/LUC7L3]",88.7 ± 4.9%,4.2e-05 µM⁻¹ s⁻¹,39.0 ± 3.6 × 10^−4 s^−1,93 ± 20 µM,
"RSKSPRRRRSHSR [SRSF11_286–298, fragment of SRSF11]",90.5 ± 5.0%,0.000195 µM⁻¹ s⁻¹,80.0 ± 3.9 × 10^−4 s^−1,41 ± 6.6 µM,
"ERα251–262K257A: ERα 251–262 peptide with alanine substitution K257A (MKGGIRADRRGG; UniProt P03372 251-262, looked up, fragment K257A)",,,,,Hydroxylation was ablated
"KSKERKRSRDRE [RBM39_51–62, fragment of RBM39]",37.0 ± 7.6%,,,,
"ERα251–262K252A: ERα 251–262 peptide with alanine substitution K252A (MAGGIRKDRRGG; UniProt P03372 251-262, looked up, fragment K252A)",,,,,Hydroxylation was ablated
"ENRHRKRSHSRSRSR [U2AF65_21–35, fragment of the RS region of U2AF65]",74.7 ± 4.1%,6.8e-05 µM⁻¹ s⁻¹,40.0 ± 2.2 × 10^−4 s^−1,59 ± 8.6 µM,
"RSRSGTRSPKKPSR [SRSF11_347–360, fragment of SRSF11]",97.0 ± 2.2%,0.000159 µM⁻¹ s⁻¹,146 ± 9.6 × 10^−4 s^−1,92 ± 14 µM,
"SRSRRRSHSKSR [SRSF11_271–282, fragment of SRSF11]",33.6 ± 1.8%,,,,
"RKRSRSKERRRS [RBM39_71–82, fragment of RBM39]",87.6 ± 7.0%,0.000322 µM⁻¹ s⁻¹,284 ± 11 × 10^−4 s^−1,88 ± 8.7 µM,
H4_1–30: histone 4 peptide with unmodified arginine residues,,,,,hydroxylation of lysine residues was also observed
"pVHL166–177: lysine-containing pVHL sequence (VRSLVKPENYRR; UniProt P40337 166-177, looked up, fragment)",,,,,presence of a +16-Da mass shift
"NPKRSRSREHRR [LUC7L2_267–278, reported JMJD6 substrate, fragment of SR protein LUC7L2, reference compound]",98.5 ± 4.8%,0.000208 µM⁻¹ s⁻¹,106 × 10^−4 s^−1 and 106 ± 4.0 × 10^−4 s^−1,51 ± 4.6 µM,
"SRDHKRSRSRERRRS [CROP311–325, fragment of SR protein CROP/LUC7L3]",89.3 ± 1.9%,0.000269 µM⁻¹ s⁻¹,191 ± 6.6 × 10^−4 s^−1,71 ± 7.2 µM,
"pVHL166–177K171A: alanine variant of pVHL166–177 (VRSLVAPENYRR; UniProt P40337 166-177, looked up, fragment K171A)",,,,,did not manifest hydroxylation
RSKKRKKSKSRS [RBM39_31–42],99.0 ± 0.70%,0.000455 µM⁻¹ s⁻¹,255 ± 15 × 10^−4 s^−1,56 ± 9.6 µM,
